Among the test systems are 786-0 renal; ACHN renal; BT-549 breast; CAKI-1 renal; DU-145 prostate; HCT-116 colon; K-562 leukemia; LOX IMVI melanoma; NCI-H226 lung; NCI-H23 lung; PC-3 prostate; SF-268 CNS; SK-MEL-2 melanoma; SW-620 colon; T-47D breast; TK-10 renal; UACC-257 melanoma.
Test in all cases: NCI tumour cell line growth inhibition, 48 h

Each structure is given as a SMILES string.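 Cells were grown in 96-well plates and exposed to each compound for 48 hours at five concentrations; endpoints were interpolated linearly between bracketing concentrations, or set to the highest concentration if not reached. Definition used: TGI = concentration required for complete inhibition of growth.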 Bounds are passed on as bounds.

In the case of `CC(C)/C(Cl)=N\OC(=O)Nc1ccc(F)cc1F`, the TGI in the test on 786-0 renal was determined as 13.3 µM; in the test with ACHN renal, 8.53 µM; in the test on BT-549 breast it was 25.9 µM; in the test on CAKI-1 renal, 34.3 µM; in the test on DU-145 prostate, 31.7 µM; in the test with HCT-116 colon it was 15.7 µM. In addition, the TGI is > 100 µM in the test with K-562 leukemia; 3.32 µM with LOX IMVI melanoma; 29.8 µM with NCI-H226 lung; 30.1 µM in the test with NCI-H23 lung; 31.6 µM with PC-3 prostate; 38.9 µM in the test with SF-268 CNS. In addition, the TGI with SK-MEL-2 melanoma worked out at 28.2 µM; with SW-620 colon it was 3.31 µM; with T-47D breast, 47.3 µM; with TK-10 renal it was 9.55 µM; in the test with UACC-257 melanoma, 27.7 µM.

As for `CCOP(=O)(OCC)C1=C(c2ccccc2)OC(N)=C(C#N)C1c1ccc(Cl)cc1` (stereo unspecified), the TGI in the test on 786-0 renal, in the test with ACHN renal, in the test with BT-549 breast, with CAKI-1 renal, in the test with DU-145 prostate and in the test on HCT-116 colon was > 100 µM throughout. Moreover, the TGI with K-562 leukemia, with LOX IMVI melanoma, in the test on NCI-H226 lung, with NCI-H23 lung, in the test on PC-3 prostate and with SF-268 CNS was > 100 µM in each case. The TGI in the test with SK-MEL-2 melanoma, in the test with SW-620 colon, in the test with T-47D breast, in the test with TK-10 renal and in the test on UACC-257 melanoma was > 100 µM throughout.

Regarding `Cc1n[nH]c(=O)n1/N=C\CC/C=N\n1c(C)n[nH]c1=O`, the TGI in the test with 786-0 renal, in the test on ACHN renal, in the test on BT-549 breast, in the test on CAKI-1 renal, in the test on DU-145 prostate and in the test with HCT-116 colon was > 100 µM in each case. The TGI in the test on K-562 leukemia, in the test with LOX IMVI melanoma, in the test with NCI-H226 lung, in the test on NCI-H23 lung, in the test on PC-3 prostate and in the test on SF-268 CNS was > 100 µM in each case. Besides, the TGI in the test with SK-MEL-2 melanoma, with SW-620 colon, with T-47D breast, in the test with TK-10 renal and in the test on UACC-257 melanoma was > 100 µM throughout.

Consider `CC(C)(C)OC(=O)N/N=C(/N)Cc1ccccc1`, for which the TGI in the test with 786-0 renal, in the test on ACHN renal, with BT-549 breast, in the test with CAKI-1 renal, in the test on DU-145 prostate and in the test with HCT-116 colon was > 100 µM in each case. Moreover, the TGI with K-562 leukemia, with LOX IMVI melanoma, in the test with NCI-H226 lung, with NCI-H23 lung, with PC-3 prostate and with SF-268 CNS was > 100 µM each time. Further, the TGI in the test with SK-MEL-2 melanoma, in the test with SW-620 colon, in the test on T-47D breast, in the test on TK-10 renal and in the test with UACC-257 melanoma was > 100 µM each time.

In the case of `NC(CCCCNC(=O)CNC(=O)OCc1ccccc1)C(=O)NC(CCCCNC(=O)CNC(=O)OCc1ccccc1)C(=O)NC(CCCCNC(=O)CNC(=O)OCc1ccccc1)C(=O)NC(CCCCNC(=O)CNC(=O)OCc1ccccc1)C(=O)NC(CCCCNC(=O)CNC(=O)OCc1ccccc1)C(=O)NC(CCCCNC(=O)CNC(=O)OCc1ccccc1)C(=O)O` (stereo unspecified), the TGI in the test with 786-0 renal, in the test on ACHN renal, with BT-549 breast, in the test with CAKI-1 renal, in the test on DU-145 prostate and in the test on HCT-116 colon was > 75 µM throughout. The TGI in the test with K-562 leukemia, with LOX IMVI melanoma, in the test on NCI-H226 lung, in the test with NCI-H23 lung, in the test with PC-3 prostate and in the test with SF-268 CNS was > 75 µM throughout. The TGI with SK-MEL-2 melanoma, with SW-620 colon, in the test with T-47D breast, with TK-10 renal and in the test with UACC-257 melanoma was > 75 µM throughout.

Take `COC(=O)C1=C(C)NC(C)=C(C(=O)OC)C1c1cccc(NO)c1`: the TGI in the test on 786-0 renal was 28.3 µM; with ACHN renal, 26.8 µM; in the test with BT-549 breast, 32.5 µM; in the test with CAKI-1 renal, 26.1 µM; with DU-145 prostate it was > 100 µM; in the test on HCT-116 colon, 26.4 µM. Besides, the TGI in the test on K-562 leukemia was > 100 µM; with LOX IMVI melanoma, 29.9 µM; in the test with NCI-H226 lung, 40.7 µM; with NCI-H23 lung it was 33.8 µM; in the test with PC-3 prostate, 30.4 µM; in the test on SF-268 CNS, 30.6 µM. The TGI with SK-MEL-2 melanoma stood at 30.8 µM; in the test with SW-620 colon, 28.5 µM; in the test on T-47D breast it was 55.4 µM; with TK-10 renal it was 27.7 µM; in the test on UACC-257 melanoma, 27.5 µM.

Consider `CCCCOCCOC1=CC(=O)c2c(O)ccc(O)c2C1=O`, for which the TGI with 786-0 renal came out at 3.03 µM; in the test with ACHN renal, 3.1 µM; in the test on BT-549 breast, 2.98 µM; in the test on CAKI-1 renal it was 3.23 µM; in the test on DU-145 prostate, 3.17 µM; with HCT-116 colon, 2.85 µM. For the same compound, the TGI in the test on K-562 leukemia was > 10 µM; with LOX IMVI melanoma it was 3.15 µM; in the test with NCI-H226 lung, 3.14 µM; in the test with NCI-H23 lung, 3.17 µM; in the test with PC-3 prostate, 6.69 µM; with SF-268 CNS, 3.65 µM. The TGI was determined as 3.26 µM in the test on SK-MEL-2 melanoma; 2.84 µM with SW-620 colon; 4.03 µM in the test on T-47D breast; 4.8 µM in the test on TK-10 renal; 2.23 µM with UACC-257 melanoma.

Consider `COc1cc(/C=C2\C(=O)N(Cc3ccccc3)C(c3ccccc3)S2(=O)=O)cc(OC)c1OC` (stereo unspecified), for which the TGI in the test on 786-0 renal, in the test on ACHN renal, in the test with BT-549 breast, with CAKI-1 renal, in the test on DU-145 prostate and in the test with HCT-116 colon was > 100 µM throughout. The TGI in the test with K-562 leukemia, with LOX IMVI melanoma, in the test on NCI-H226 lung, with NCI-H23 lung, with PC-3 prostate and in the test on SF-268 CNS was > 100 µM in each case. For the same compound, the TGI with SK-MEL-2 melanoma, in the test on SW-620 colon, in the test with T-47D breast, with TK-10 renal and with UACC-257 melanoma was > 100 µM in each case.

Source of the values: PubChem BioAssay (NCI).
